According to PMC10447463, “Data-mining unveils structure–property–activity correlation of viral infectivity enhancing self-assembling peptides” (Nature Communications, 2023):
“And” between values parts separate entries of the source, which are not always exact repeats. Identical values can stand only once. Like-named read-outs stand apart in the source and are kept apart here.

Columns and labels:
[1] = Turbidity, derived count rate of scattered light; assay type: physicochemical; conditions: for Log Count Rate: log of derived count rate; for Count Rate: turbidity; for Count Rate / Zeta Count Rate / kcps: derived count rate of scattered light
In short: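 One-day room-temperature aggregation at 1 mg/mL in PBS (pH 7.4) preceded measurement; samples then went into 1 mM KCl. Triplicates per sample, two independent experiments averaged.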

[2] = Zeta-potential measurement; assay type: physicochemical; conditions: for Zeta-pot. / mV: zeta potential of peptide, Fig S15 source data
In short: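 Samples: 1 mg/mL in PBS pH 7.4 (from DMSO), 1 d at RT, then diluted in 1 mM KCl immediately before measurement. Triplicates, two independent runs averaged.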

[3] = β-sheet content by ATR-FT-IR; assay type: physicochemical
In short: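 Conversion rate: fluorescamine fluorescence (ex 365/em 470 nm, 20 min RT) of 3 kDa filtrate versus unfiltered PNF, CR = 100 − 100 × filtrate/original intensity, triplicates. β-sheet content came from ATR FT-IR of lyophilized 1 mg/mL PNF powder, 64 scans.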

[4] = tested on: HIV-1 infection of TZM-bl cells; test: HIV-1 infectivity enhancement assay, β-galactosidase luminescence; assay type: cell-based; conditions: for Rel-to EFC / n-fold to virus: Fig S8 panels B, D; for Log10 Inf. rel. to EF-C: log10 of HIV-1 infection of TZM-bl cells relative to EF-C, Fig S15 source data, asymmetric std dev errors
[5] = Fig S8 panels A, C, asymmetric log errors
[6] = category 1 or 0 derived from the count rate, key not given
[7] = mean, std deviation in next column
[8] = category derived from the zeta potential
[9] = Feb2021, Log10 of infectivity relative to EF-C
[10] = Feb2021, figures match the 1.3 µM column
[11] = Feb2021, infectivity enhancement relative to EF-C
[12] = Feb2021, infectivity relative to virus only
[13] = Feb2021, n-fold infectivity relative to EF-C
[14] = infectivity enhancement relative to EF-C
[15] = infectivity n-fold relative to virus alone
[16] = infectivity class (low / medium / high) of each library peptide, main list in c1-c6, same classes repeated in sub-lists of sequences containing the hydrophobicity/charge patterns P+,H0,P+,H0,P0,H0,P0, P+,H0,P0,H0,P0,H0,P0, P+,H0,P0,H0
[17] = category 1 or 0 from count rate, key not given
[18] = mean, std deviation in separate column
[19] = Feb2021, 1.3 µM value relative to virus only (0 µM)
[20] = Feb2021, n-fold enhancement relative to EF-C
[21] = Feb2021, unrounded values of the 1.3 µM column
[22] = Feb2021 run, infectivity n-fold relative to virus alone
[23] = Feb2021 run, log10 of infectivity relative to EF-C
[24] = Feb2021 run, n-fold infectivity relative to EF-C

Row | Substance | Zeta Count Rate Category ([1]; category 1 / 0, no key given) | Zeta Count Rate / kcps [1] [kcps] | Zeta Count Rate / kcps [1, 7] [kcps] | Zeta Pot. / mV [2] [mV] | Zeta category ( +1 = if > 4 mV;-1 = if < -4 mV; 0 = -4mV to 4 mV) [2] | Zeta Pot. / mV ([2]; mean, Std Zeta in next column) [mV] | Zeta-pot. / mV [2] [mV] | FTIR ß-sheet content/ % ([3]; ATR-FT-IR) | Log10 of Rel to EFC (Feb2021) [4, 9] | Absolute Infectivity / RLU /s (Feb2021) [4, 10] [RLU /s] | n-fold to virus (Feb2021) [4, 12] | Rel-to EFC (Feb-2021) [4, 13] | infectivity [4, 16] | Log10 Inf. rel. to EF-C [4] | Zeta Count Rate / kcps [1, 18] [kcps] | Zeta Pot. / mV ([2]; mean, Std in separate column) [mV] | FTIR ß-sheet content/ % [3] [%] | n-fold to virus (Feb2021) [4, 22] | Log10 of Rel to EFC (Feb2021) [4, 23] | Rel-to EFC (Feb-2021) [4, 24] | other results
1 | HHHHKIKIKIKIYYYY [TM6] | 1 | 12792.53333 | 12792.53333 | 13.2 | 1 (+1 = if > 4 mV) | 13.2 | 13.2 | 0% | -0.1685 | 20713.33333 | 28.5 | 0.6784 | medium | -0.1685 |  |  |  |  |  |  | Log Count Rate [1, 5]: 4.107; Log Count Rate ([1]; Fig S8 panels B, D): 4.107; Count Rate ([1]; Fig S8 panels B, D): 12792.5; Zeta Count Rate Category [1, 6]: 1; Zeta category ( +1 = if > 4 mV;-1 = if < -4 mV; 0 = -4mV to 4 mV) [2, 8]: 1 (+1 = if > 4 mV); Rel-to EFC (Feb-2021) [4, 11]: 0.6784; Rel-to EFC [4, 14]: 0.6784; n-fold to virus [4, 15]: 28.5
2 | KIKIQINMWQ [JG1] |  |  | 2196 |  | 1 (+1 = if > 4 mV) | 14.87 | 14.87 | 42% and 42.41% | -0.5276 |  |  | 0.2968 | medium | -0.5276 | 2196 | 14.87 | 42.41 | 12.47 | -0.5276 | 0.2968 | Zeta Count Rate Category ([1]; category 1/0, no key printed): 1; Zeta Count Rate Category [1, 17]: 1; Zeta category ( +1 = if > 4 mV;-1 = if < -4 mV; 0 = -4mV to 4 mV) ([2]; FigS26): 1 (+1 = if > 4 mV); Zeta category ( +1 = if > 4 mV;-1 = if < -4 mV; 0 = -4mV to 4 mV) ([2]; category from zeta potential): 1 (+1 = if > 4 mV); n-fold to virus (Feb2021) [4, 19]: 12.47; Log10 of Rel to EFC (Feb2021) ([4]; Feb2021, log10 of infectivity relative to EF-C): -0.5276; Rel-to EFC (Feb-2021) [4, 20]: 0.2968; Absolute Infectivity / RLU /s (Feb2021) [4, 21]: 6650 RLU /s
3 | KIKIQI [JJA4] |  |  | 108.3 |  | -1 (-1 = if < -4 mV) | -5.63 | -5.63 | 39% and 38.6% | -1.169 |  |  | 0.06771 | low | -1.169 | 108.3 | -5.63 | 38.6 | 2.845 | -1.169 | 0.06771 | Zeta Count Rate Category ([1]; category 1/0, no key printed): 1; Zeta Count Rate Category [1, 17]: 1; Zeta category ( +1 = if > 4 mV;-1 = if < -4 mV; 0 = -4mV to 4 mV) ([2]; category from zeta potential): -1 (-1 = if < -4 mV); n-fold to virus (Feb2021) [4, 19]: 2.845; Rel-to EFC (Feb-2021) [4, 20]: 0.06771; Absolute Infectivity / RLU /s (Feb2021) [4, 21]: 550 RLU /s
4 | QCKFKQFF [CK12] | 1 | 225.4 | 225.4 | 4.94 | 1 (+1 = if > 4 mV) | 4.94 | 4.94 | 0% | -1.907 | 170 | 0.5204 | 0.01239 | low | -1.907 | 225.4 | 4.94 |  | 0.5204 | -1.907 | 0.01239 | Zeta Count Rate Category [1, 6]: 1; Zeta category ( +1 = if > 4 mV;-1 = if < -4 mV; 0 = -4mV to 4 mV) [2, 8]: 1 (+1 = if > 4 mV); Rel-to EFC (Feb-2021) [4, 11]: 0.01239
5 | CKFKQFF [CK15] | 0 | 2.567 | 2.567 | 11.56 | 1 (+1 = if > 4 mV) | 11.56 | 11.56 | 45.41% | -2.171 | 260 | 0.2836 | 0.00675 | low | -2.171 | 2.567 | 11.56 | 45.41 | 0.2836 | -2.171 | 0.00675 | Log Count Rate [1, 5]: 0.4099; Log Count Rate ([1]; Fig S8 panels B, D): 0.4099; Count Rate ([1]; Fig S8 panels B, D): 2.57; Zeta Count Rate Category [1, 6]: 0; Zeta category ( +1 = if > 4 mV;-1 = if < -4 mV; 0 = -4mV to 4 mV) [2, 8]: 1 (+1 = if > 4 mV); Rel-to EFC (Feb-2021) [4, 11]: 0.00675; Rel-to EFC [4, 14]: 0.00675; n-fold to virus [4, 15]: 0.2836
6 | CKFKQFFNMWQ [CK13] | 1 | 8210 | 8210 | 8.563 | 1 (+1 = if > 4 mV) | 8.563 | 8.563 | 59% and 59.11% | -0.2148 | 23486.66667 | 25.62 | 0.6098 | medium | -0.2148 | 8210 | 8.563 | 59.11 | 25.62 | -0.2148 | 0.6098 | Zeta Count Rate Category [1, 17]: 1; Zeta category ( +1 = if > 4 mV;-1 = if < -4 mV; 0 = -4mV to 4 mV) ([2]; category from zeta potential): 1 (+1 = if > 4 mV); Rel-to EFC (Feb-2021) [4, 20]: 0.6098
7 | KLKQLL [KM27 / psis14] | 1 | 319.9 | 319.9 | -8.46 | -1 (-1 = if < -4 mV) | -8.46 | -8.46 | 0% | -2.131 | 196.7 | 0.3105 | 0.00739 | low | -2.131 |  |  |  |  |  |  | Zeta Count Rate Category [1, 6]: 1; Zeta category ( +1 = if > 4 mV;-1 = if < -4 mV; 0 = -4mV to 4 mV) [2, 8]: -1 (-1 = if < -4 mV); Rel-to EFC (Feb-2021) [4, 11]: 0.00739
8 | CKIKIQINM [MG2] |  |  | 4228 |  | 1 (+1 = if > 4 mV) | 16.83 | 16.83 | 43% and 42.84% | 0.2012 |  |  | 1.589 | high | 0.2012 | 4228 | 16.83 | 42.84 | 66.78 | 0.2012 | 1.589 | Zeta Count Rate Category ([1]; category 1/0, no key printed): 1; Zeta Count Rate Category [1, 17]: 1; Zeta category ( +1 = if > 4 mV;-1 = if < -4 mV; 0 = -4mV to 4 mV) ([2]; category from zeta potential): 1 (+1 = if > 4 mV); n-fold to virus (Feb2021) [4, 19]: 66.78; Rel-to EFC (Feb-2021) [4, 20]: 1.589; Absolute Infectivity / RLU /s (Feb2021) [4, 21]: 30273.33333 RLU /s; infectivity ([4]; infectivity class (low / medium / high) of the peptide in the sequence-pattern analysis, Fig. S22-A4, class limits not given): high
